# Assay results reported in patent publication US20180110754A1, “CENICRIVIROC FOR THE TREATMENT OF FIBROSIS” (Tobira Therapeutics, Inc., priority 2015, published 2018).
# Tests used:
# [1] = Mouse thioglycollate-induced peritonitis model: circulating blood cell counts; details: in vivo
# Method: The lavage fluid was placed on wet ice pending processing for total and differential cell counts using the Advia analyzer. Following the lavage collection, a blood sample (0.7 mL) was collected from each mouse by intracardiac puncture or from the vena cava (collection time was recorded). 0.5 mL of blood was placed in an EDTA tube, transferred to clinical pathology and analyzed for differential cell counts using the Advia analyzer. 0.2 mL of blood was placed in a K2EDTA tube and processed to plasma. The plasma was collected by centrifugation (3000 rpm for 10 minutes at 4° C.) and placed on dry ice. The samples were analyzed to determine CVC plasma levels. After blood collection, the animals were then exsanguinated by sectioning of the abdominal aorta.
# Statistical Analysis: One-way ANOVA with post-hoc Dunnett's statistical analysis was performed on differential cell counts obtained from lavage and blood samples. The analysis was performed in comparison to Group 2.
# [2] = tested on: mouse monocytes; test: CCL2-induced chemotaxis ex vivo on mouse monocytes; type: cell-based
# Method: Monocyte/macrophage recruitment was assessed in vivo in a mouse model of thioglycollate-induced peritonitis. CCL2-induced chemotaxis was evaluated ex vivo on mouse monocytes. […] Study assessments included body and liver/kidney weight, liver function test, liver/kidney morphology and collagen deposition, fibrogenic gene and protein expression, and pharmacokinetic analyses.
# [3] = tested on: HIV-1; test: Ex vivo intracellular HIV DNA qPCR in PBMCs of Study 202 participants; parameters: species or system human; details: EFV 600 mg, week 24
# Method: Intracellular DNA qPCR. Total DNA was extracted, quantified, and stored at −80 C.
# The Mann-Whitney test was used to analyze in vitro intracellular HIV DNA levels for all three treatment groups. All data were analyzed using Prism 5 software.
SMILES,Circulating blood cell counts [1],Monocyte migration ex vivo (CCL2-induced chemotaxis) [2],"Full-length intracellular HIV DNA, mean fold-change from baseline [3] [fold]","Strong-stop intracellular HIV DNA, mean fold-change from baseline [3] [fold]"
"CCCCOCCOc1ccc(-c2ccc3c(c2)/C=C(/C(=O)Nc2ccc([S@@+]([O-])Cc4cncn4CCC)cc2)CCCN3CC(C)C)cc1 [CVC, (S)-8-[4-(2-Butoxyethoxy)phenyl]-1-isobutyl-N-(4-{[(1-propyl-1H-imidazol-5-yl)methyl]sulfinyl}phenyl)-1,2,3,4-tetrahydro-1-benzazocine-5-carboxamide]",no clear changes,reduced,–,–
"O=C1Nc2ccc(Cl)cc2[C@@](C#CC2CC2)(C(F)(F)F)O1 [EFV, efavirenz, reference compound]",–,–,0.825,1.01
